This note sets out measurements from PubChem BioAssay (NCI).

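Interpolation was linear, between the two tested concentrations surrounding the appropriate level; five concentrations were tested over 48 hours in 96-well plates. Here, GI50 denotes the concentration required for 50% inhibition of growth. TGI is the concentration that stops growth completely.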

Some test systems named below: CCRF-CEM leukemia; DU-145 prostate; HCC-2998 colon; HT29 colon; IGROV1 ovarian; MOLT-4 leukemia; NCI-H23 lung; PC-3 prostate; SNB-75 CNS; UO-31 renal.
Holding throughout (assay): NCI anticancer screen, dose series, 48 h

On to `COc1ccc(C2SC(N)=Nc3c2c(C)nn3C(=O)c2ccc(Cl)cc2)cc1OC` (stereo not drawn), for which the TGI in the assay with CCRF-CEM leukemia, in the assay on DU-145 prostate, with HCC-2998 colon, in the assay with HT29 colon, with IGROV1 ovarian and in the assay on MOLT-4 leukemia was greater than 10 µM each time. Moreover, the TGI in the assay on NCI-H23 lung, in the assay with PC-3 prostate and in the assay with SNB-75 CNS was greater than 10 µM each time.
`Cc1ccc(C(=O)/C(=C/c2ccc([N+](=O)[O-])cc2)S(=O)Cc2ccccc2)cc1` (stereo not drawn): the GI50 with CCRF-CEM leukemia was 0.396 µM; with DU-145 prostate, 1.34 µM; with HCC-2998 colon, 1.78 µM; with HT29 colon it was 1 µM; in the assay on IGROV1 ovarian, 1.42 µM; with NCI-H23 lung it was 1.86 µM. Further, the results for the GI50 with PC-3 prostate, in the assay on SNB-75 CNS and with UO-31 renal were 1.35 µM, 1.27 µM and 1.17 µM, respectively. Besides, the TGI in the assay on CCRF-CEM leukemia was greater than 100 µM; with DU-145 prostate, 2.69 µM; in the assay with HCC-2998 colon it was 3.29 µM; in the assay on HT29 colon it was 2.44 µM; with IGROV1 ovarian it was 3.29 µM; with NCI-H23 lung, 5.25 µM. The results for the TGI in the assay with PC-3 prostate, in the assay on SNB-75 CNS and with UO-31 renal were 2.95 µM, 2.73 µM and 2.55 µM, respectively.
Take `Fc1cccc(COc2ccc(Nc3ncnc4sc(-c5ccco5)cc34)cc2Cl)c1`: the GI50 in the assay on CCRF-CEM leukemia, with DU-145 prostate, in the assay with HCC-2998 colon, in the assay on HT29 colon, in the assay with IGROV1 ovarian and with MOLT-4 leukemia was greater than 25 µM each time. Moreover, the GI50 with NCI-H23 lung, in the assay with PC-3 prostate, in the assay on SNB-75 CNS and in the assay with UO-31 renal was greater than 25 µM throughout. For the same molecule, the TGI in the assay on CCRF-CEM leukemia, with DU-145 prostate, with HCC-2998 colon, in the assay on HT29 colon, in the assay with IGROV1 ovarian and in the assay with MOLT-4 leukemia was greater than 25 µM each time. For the same molecule, the TGI in the assay with NCI-H23 lung, with PC-3 prostate, in the assay with SNB-75 CNS and with UO-31 renal was greater than 25 µM throughout.
For `Nc1c(C(=O)Nc2ccc([As](=O)(O)O)cc2)cnc2nnnn12`, the TGI with CCRF-CEM leukemia, in the assay with DU-145 prostate, with HCC-2998 colon, with HT29 colon, in the assay on IGROV1 ovarian and in the assay on MOLT-4 leukemia was greater than 100 µM throughout. Further, the TGI in the assay on NCI-H23 lung, in the assay on PC-3 prostate, with SNB-75 CNS and in the assay on UO-31 renal was greater than 100 µM each time.
Turning to `Cc1cc2c(cc1C)NC1=C(N2)OC(c2c[nH]c3ccc(COc4ccccc4)cc23)C1=O` (stereo not drawn), the TGI was greater than 100 µM in the assay with DU-145 prostate; 98.5 µM in the assay with HCC-2998 colon; greater than 100 µM in the assay on HT29 colon; greater than 100 µM in the assay on IGROV1 ovarian; greater than 100 µM in the assay with MOLT-4 leukemia; greater than 100 µM with NCI-H23 lung. In addition, the results for the TGI in the assay on PC-3 prostate, with SNB-75 CNS and with UO-31 renal were greater than 100 µM, 38.7 µM and greater than 100 µM, respectively.
In the case of `COc1cc(-c2oc3ccccc3c(=O)c2O)cc(OC)c1OC`, the TGI is greater than 30.5 µM in the assay with CCRF-CEM leukemia; greater than 100 µM in the assay with DU-145 prostate; greater than 100 µM in the assay on HCC-2998 colon; greater than 100 µM in the assay on HT29 colon; greater than 100 µM in the assay with IGROV1 ovarian; greater than 100 µM with MOLT-4 leukemia. For the same molecule, the TGI in the assay with NCI-H23 lung is greater than 100 µM; in the assay on PC-3 prostate it was greater than 100 µM; with SNB-75 CNS, 25.6 µM; with UO-31 renal, greater than 100 µM.
Turning to `Nc1cc2c3c(cccc3c1)NC2=O`, the TGI with CCRF-CEM leukemia, in the assay on DU-145 prostate, in the assay on HCC-2998 colon, with HT29 colon, in the assay with IGROV1 ovarian and in the assay with MOLT-4 leukemia was greater than 100 µM each time. Also, the TGI with NCI-H23 lung, with PC-3 prostate, in the assay with SNB-75 CNS and in the assay with UO-31 renal was greater than 100 µM in each case.
For the molecule `COc1cc(-c2csc(NC(=O)c3cc(C(F)(F)F)cc(C(F)(F)F)c3)n2)cc(OC)c1OC`, the GI50 with CCRF-CEM leukemia was 2.83 µM; with DU-145 prostate it was 3.62 µM; in the assay on HCC-2998 colon, 3.2 µM; in the assay on HT29 colon, 2.07 µM; in the assay on IGROV1 ovarian, 4.37 µM; in the assay on MOLT-4 leukemia it was 1.92 µM. In addition, the GI50 was 1.73 µM in the assay with PC-3 prostate, 2.83 µM with SNB-75 CNS and 2.57 µM in the assay on UO-31 renal. Moreover, the TGI was greater than 100 µM in the assay on CCRF-CEM leukemia; greater than 100 µM in the assay on DU-145 prostate; greater than 100 µM in the assay with HCC-2998 colon; greater than 100 µM in the assay on HT29 colon; greater than 100 µM in the assay on IGROV1 ovarian; 4.98 µM in the assay with MOLT-4 leukemia. Besides, the values for the TGI in the assay on PC-3 prostate, in the assay on SNB-75 CNS and in the assay on UO-31 renal were 7.35 µM, greater than 100 µM and greater than 100 µM, respectively.
For the molecule `C/C(=N\O)c1ccc(Nc2cc(-n3nnc4ccccc43)nc3ccccc23)cc1`, the GI50 is 2.75 µM in the assay with CCRF-CEM leukemia; 7.7 µM in the assay with DU-145 prostate; 5.89 µM with HT29 colon; 12.9 µM with IGROV1 ovarian; 2.85 µM in the assay with MOLT-4 leukemia; 8.98 µM with NCI-H23 lung. The figures for the GI50 in the assay with PC-3 prostate, with SNB-75 CNS and in the assay on UO-31 renal were 4.5 µM, 22.8 µM and 6.79 µM, respectively. For the same molecule, the TGI in the assay on CCRF-CEM leukemia is 30.3 µM; with DU-145 prostate it was 30 µM; in the assay on HT29 colon, greater than 100 µM; with IGROV1 ovarian it was 42.5 µM; in the assay with MOLT-4 leukemia, 15.4 µM; with NCI-H23 lung, greater than 29.5 µM. The TGI in the assay with PC-3 prostate was 20.5 µM; in the assay on SNB-75 CNS, 99.2 µM; in the assay on UO-31 renal, 26.6 µM.
For the molecule `O=C(CC(C(=O)c1cccs1)c1ccc2c(c1)OCO2)c1ccc(Br)cc1` (stereo not drawn), the TGI in the assay on CCRF-CEM leukemia, with DU-145 prostate, with HCC-2998 colon, in the assay on IGROV1 ovarian, in the assay on MOLT-4 leukemia and in the assay on NCI-H23 lung was greater than 100 µM throughout. The TGI in the assay with PC-3 prostate, with SNB-75 CNS and with UO-31 renal was greater than 100 µM in each case.
Regarding `NS(=O)(=O)c1ccc(N2Cc3cc(Cl)ccc3OC3=C2C(=O)N(CC2CCCCC2)C3=O)cc1`, the GI50 with DU-145 prostate was 1.06 µM; in the assay with HCC-2998 colon, 1.84 µM; in the assay on HT29 colon, 0.392 µM; in the assay on IGROV1 ovarian, 1.34 µM; in the assay on MOLT-4 leukemia, 0.195 µM; in the assay on NCI-H23 lung it was 1.64 µM. The results for the GI50 in the assay on PC-3 prostate, in the assay with SNB-75 CNS and in the assay on UO-31 renal were 0.519 µM, 0.784 µM and 1.1 µM, respectively. Besides, the TGI is 2.25 µM with DU-145 prostate; 3.51 µM with HCC-2998 colon; 1.1 µM in the assay on HT29 colon; 2.83 µM in the assay with IGROV1 ovarian; 0.531 µM in the assay with MOLT-4 leukemia; 3.61 µM in the assay with NCI-H23 lung. Besides, the results for the TGI with PC-3 prostate, in the assay on SNB-75 CNS and in the assay with UO-31 renal were 2.09 µM, 2.13 µM and 2.32 µM, respectively.
Turning to `COc1cc(/C=C2\CN(C)CC3=C2Nc2nc(SC)[nH]c(=O)c2C3c2cc(OC)c(OC)c(OC)c2)cc(OC)c1OC` (stereo not drawn), the GI50 in the assay on DU-145 prostate is 3.6 µM; in the assay on HCC-2998 colon it was 1.91 µM; in the assay with HT29 colon it was 2.35 µM; in the assay on IGROV1 ovarian, 3.1 µM; with MOLT-4 leukemia, 2.92 µM; with NCI-H23 lung, 3.54 µM. The GI50 was 3.63 µM in the assay on PC-3 prostate, 7.36 µM in the assay on SNB-75 CNS and 1.57 µM with UO-31 renal. The TGI came to 12.1 µM with DU-145 prostate; 3.63 µM in the assay on HCC-2998 colon; 5.22 µM in the assay with HT29 colon; 12.6 µM with IGROV1 ovarian; 88 µM in the assay on MOLT-4 leukemia; 15.8 µM in the assay with NCI-H23 lung. Moreover, the TGI in the assay with PC-3 prostate was found to be 32.4 µM; with SNB-75 CNS it was 22.6 µM; in the assay on UO-31 renal it was 3.44 µM.
As for `COc1cc(Nc2ccnc(N3CCN(c4ccnc5cc(Cl)ccc45)CC3)n2)cc(OC)c1`, the GI50 with CCRF-CEM leukemia is 1.38 µM; in the assay with DU-145 prostate, 3.25 µM; in the assay on HCC-2998 colon it was 2.8 µM; in the assay on HT29 colon, 0.46 µM; in the assay with IGROV1 ovarian, 1.36 µM; in the assay with NCI-H23 lung it was 1.32 µM. Also, the GI50 in the assay with PC-3 prostate is 1.4 µM; in the assay on SNB-75 CNS, 1.95 µM; in the assay with UO-31 renal, 0.938 µM. Besides, the TGI with CCRF-CEM leukemia is greater than 100 µM; with DU-145 prostate it was greater than 100 µM; in the assay on HCC-2998 colon, greater than 100 µM; with HT29 colon it was 2.96 µM; with IGROV1 ovarian it was greater than 26.1 µM; in the assay on NCI-H23 lung, greater than 100 µM. Further, the TGI is greater than 100 µM in the assay with PC-3 prostate, 6.81 µM in the assay with SNB-75 CNS and greater than 30.7 µM in the assay with UO-31 renal.
As to `CC(CO)[C@H]1OC(=O)C=C2[C@@]13O[C@@H]3[C@H]1OC(=O)[C@@]3(C)[C@H]4O[C@H]4C[C@@]2(C)[C@@H]13` (stereo partly drawn), the TGI was greater than 27.1 µM in the assay with DU-145 prostate; 8.58 µM in the assay with HCC-2998 colon; 20.7 µM with HT29 colon; 12 µM with IGROV1 ovarian; 3.65 µM in the assay with MOLT-4 leukemia; greater than 36.6 µM in the assay on NCI-H23 lung. Moreover, the TGI amounted to 23.1 µM in the assay on PC-3 prostate, 6.05 µM in the assay with SNB-75 CNS and 6.41 µM in the assay with UO-31 renal.
For the molecule `O=c1oc2ccccc2c(O)c1C=NC(=S)c1ccncc1`, the TGI with DU-145 prostate, in the assay with HCC-2998 colon, with HT29 colon, in the assay with IGROV1 ovarian, with MOLT-4 leukemia and in the assay on NCI-H23 lung was greater than 100 µM each time. In addition, the TGI in the assay with PC-3 prostate, in the assay on SNB-75 CNS and in the assay on UO-31 renal was greater than 100 µM in each case.
